Legend:
[1] = tested on: GLP-1R^(-/-) knockout mice; assay: Line test (locomotor activity) after ICV injection, GLP-1R knockout mice; format: in vivo; settings: GLP-1R knockout mice fasted overnight; ICV 5 μl; GLP-1 5 μg, Exendin(9-39) amide 10 μg, Exendin-4 amide 15 μg
Procedure: GLP-1R^(-/-) knockout age-matched male mice, produced as described above in example 1, were bred in the Toronto Hospital animal facility. All mice were fed a diet of ad libitum access to standard laboratory rat chow and tap water.
All mice were faster overnight 16 hours prior to the start of the experiment. Mice were lightly anesthetized by placing them in a covered beaker with 800 μl of Methoxyflurane (Metofane, Jannsen Pharmaceuticals) for approximately 3 minutes. Peptides were delivered into the ventricles by ICV injection using a 2.5 mm×30 gauge needle attached to a Hamilton syringe. All test peptides were dissolved in phosphate buffered saline.
(§1) Following ICV administration of GLP-1 [5 μg/5 μl; Glucagon-like Peptide 1 (7-36) amide, human, lot # AM680, Bachem California, Torrence, Calif.], Exendin(9-39) amide (10 μg/5 μl; lot # ZN136, Bachem California, Torrence, Calif.), Exendin-4 amide (15 μg/5 μl; kit # 506189, Bachem California, Torrence, Calif.), or PBS, mice were placed into individual cages for the period of observation.
(§2) To record food intake, mice were given a pre-weighed (approx. 3 g) amount of rodent chow when all members of a test group appeared fully alert, generally about 20-30 minutes after ICV injection.
(§3) Approximately 15-20 min. after the mice had begun to eat, or no longer than 30 min. following the addition of the pre-weighed rodent chow to the cages, the parameter of arousal/sedation was assessed, namely mice were assessed for locomotor activity by measuring the number of times each animal crossed over a line that was placed in the center of the cage (line test).
(§4) The Locomotor activity was assessed for 3×30 min consecutive periods. The data for the first 30 minutes observation period is shown in the accompanying FIG. 1.

[2] = tested on: rats; settings: ICV administration; cited from earlier work
[3] = tested on: Wild-type (+/+), male CD1 mice; assay: Line test (locomotor activity) after ICV injection, wild-type mice; format: in vivo; settings: wild-type mice fasted overnight; ICV 5 μl; GLP-1 5 μg, Exendin(9-39) amide 10 μg, Exendin-4 amide 15 μg
Procedure: Male CD1 mice were used for these experiments. Wild-type (+/+), male CD1 mice (approx. 11 weeks old) were obtained from Charles River Canada (Quebec). Mice were acclimatized to the animal facility for several days prior to use in the actual experiments.
All mice were faster overnight 16 hours prior to the start of the experiment. Mice were lightly anesthetized by placing them in a covered beaker with 800 μl of Methoxyflurane (Metofane, Jannsen Pharmaceuticals) for approximately 3 minutes. Peptides were delivered into the ventricles by ICV injection using a 2.5 mm×30 gauge needle attached to a Hamilton syringe. All test peptides were dissolved in phosphate buffered saline. Mice were given 5 μl ICV injections of the test peptides or saline, following which they were observed closely for 3 hours.
as §1, §2, §3, §4

[4] = tested on: normal wildtype mice; assay: Dose response experiment, line test after ICV injection, non-fasted mice; format: in vivo; settings: for mean number of line crossings: not fasted, saline control 66.8
Procedure: A dose response experiment was performed to compare the specific activities of exendin and GLP-1 peptides. Additionally, this experiment was designed to eliminate the possibility that the sedative response was connected to any feeding behavior. Therefore, mice were not fasted prior to the experiment, and were instead allowed food and water ad libitum throughout their dark cycle. At the beginning of the light cycle, food was removed and peptides administered. Exendin or GLP-1 peptide, obtained as described above, were each injected ICV into normal wildtype mice at a concentration of 0.5, 1.0, 5.0 or 10.0 μg per 5 μl, and locomotor activity assessed as above.

Row | Substance | locomotor activity / lethargy [1] | food intake / feeding [2] | locomotor activity (number of line cross events) [3] | mean number of line crossings ([4]; 0.5 μg per 5 μl ICV (lowest dose)) | potency relative to GLP-1 on a weight (μg) basis ([4]; sedative effect in the mammalian central nervous system, ICV) | locomotor activity [2] | mean number of line crossings ([4]; 10 μg per 5 μl ICV (highest dose))
1 | Exendin(9-39) amide | induced lethargy | doubled food intake | greatly increased locomotor activity | – | – | – | –
2 | Exendin-4 amide [exendin 4] | induced lethargy and reduced movement | – | clear and marked decreased number of line cross events | 11.5 | at least 20 fold | – | –
3 | Glucagon-like Peptide 1 (7-36) amide [GLP-1] | did not | inhibits feeding | exhibited the same tendency | – | – | reduction in locomotor activity | 24
